In patent US12150927B2, “Use of cannabidiolic acid in the treatment of autism spectrum disorder and associated disorders” (GW Research Limited, priority 2016, dated 2024):
Several values for one entry are separate records, joined by “and”; a condition that tells them apart may be missing. Equal values may be shown once.

How the values were obtained:
[1] = test system: VPA-exposed offspring; assay: Locomotor activity and repetitive behaviours (self-grooming) in activity cage, rat VPA model; format: in vivo, Sprague-Dawley rats; conditions: CBDA 20 mg/kg/day i.p. PND 34-56
Experimental: (§1) Pregnant Sprague-Dawley rats (Charles River, Calco, Italy), received a single intraperitoneal injection of 500 mg/kg sodium valproate on the 12.5 day after conception, and control females were injected with physiological saline at the same time. Sodium valproate (Sigma Aldrich, Milan, IT) was dissolved in saline at a concentration of 250 mg/ml.
(§2) CBDA was dissolved in ethanol, cremophor and saline (1:1:18). Symptomatic treatment with CBDA at doses of 2 and 20 mg/kg/day i.p. was performed starting from PND 34 (early adolescence) till 56 (early adulthood), both in male and female offspring of dams injected with VPA 500 mg/kg (or vehicle) on day 12.5 after conception. At PND 56, a series of behavioural tests was performed in order to assess the effect of chronic CBDA on sociability, social novelty, short-term memory, locomotion and stereotyped/repetitive behaviours.
Locomotor activity and repetitive behaviours: Locomotor activity was recorded in an activity cage for 20 minutes with the aid of Anymaze program (Ugo Basile, Italy). In this period, repetitive behaviours (self-grooming and digging) were measured by an observer blind to the treatment group.

[2] = test system: VPA rats; assay: Short-term memory, novel object recognition test, rat VPA model; format: in vivo, Sprague-Dawley rats; conditions: FIG. 2C
Experimental: as §1, §2
Short-term memory: The experimental apparatus used for the object recognition test was an open-field box (43×43×32 cm) made of Plexiglas, placed in a dimly illuminated room. The experiment was performed and analysed as previously described (Zamberletti et al, 2014). Animals performed each test individually.
Each animal was placed in the arena and allowed to explore two identical previously unseen objects for 5 minutes (familiarization phase). After an inter-trial interval of 3 minutes one of the two familiar objects was replaced by a novel, previously unseen object and rats were returned to the arena for the 5-minute test phase. During the test phase the time spent exploring the familiar object (Ef) and the new object (En) was videotaped and recorded separately by two observers blind to the treatment groups and the discrimination index was calculated as follows: [(En−Ef)/(En+Ef)]×100.

[3] = test system: MeCP2 KO and WT mice; assay: Survival, mouse model of Rett syndrome; format: in vivo
Experimental: CBDA was administered daily at the dose of 2 or 20 mg/kg i.p. starting from PND 28 and the following signs were scored every other day: hindlimb clasping (indication of motor imbalance), tremor, gait (measure of coordination), breathing, mobility and general condition.
The CBDA was dissolved in ethanol, cremophor and saline (1:1:18). Starting from PND 28, mice received a daily intraperitoneal injection of CBDA (or vehicle) at the dose of 2 or 20 mg/kg. Animals were then scored every other day to evaluate the effect of CBDA treatment on motor symptoms (hindlimb clasping, gait, mobility) as well as neurological signs and general conditions (breathing abnormalities, tremors and general condition) present in MeCP2 knockout (KO) mice.

`C=C(C)[C@@H]1CCC(C)=C[C@H]1c1c(O)cc(CCCCC)c(C(=O)O)c1O` [CBDA, Cannabidiolic acid] was tested, and the locomotor activity ([1]; VPA offspring, FIG. 2B) was “able to normalize this”, the “repetitive behaviours (time spent in compulsive self-grooming)” value ([1]; VPA-exposed offspring, FIG. 2A) was “significantly normalize this behaviour” and the “short-term memory (discrimination index)” value ([2]; CBDA 20 mg/kg/day i.p., female VPA rats) was “able to reverse the short-term memory deficit”. The “short-term memory (discrimination index)” value ([2]; CBDA 2 and 20 mg/kg/day i.p., male VPA rats) was “completely and significantly reversed the short-term memory deficit”, the “recognition memory per se” value ([2]; CBDA given to vehicle-treated (non VPA) rats) was “without affecting per se recognition memory” and the survival rate ([3]; MeCP2 KO mice, chronic CBDA 20 mg/kg i.p., PND 67 (vehicle KO 57.14%), FIG. 6) was 85.14% and 85%. For the same molecule, the lethality ([3]; WT mice treated with CBDA (2 and 20 mg/kg i.p. daily)) was “No lethality”.
